According to ChEMBL document CHEMBL1681733, “Synthesis and evaluation of [(1R)-1-amino-2-(2,5-difluorophenyl)ethyl]cyclohexanes and 4-[(1R)-1-amino-2-(2,5-difluorophenyl)ethyl]piperidines as DPP-4 inhibitors” (Bioorg Med Chem Lett, 2011):

What was measured:
Dipeptidyl peptidase 4 = Dipeptidyl peptidase 4 (Homo sapiens, UniProt P27487)
Dipeptidyl peptidase 2 = Dipeptidyl peptidase 2 (Homo sapiens, UniProt Q9UHL4); experiment: Inhibition of QPP
Prolyl endopeptidase FAP = molecular target: T1, Prolyl endopeptidase FAP (Homo sapiens, UniProt Q12884); experiment: Inhibition of FAP
T1 sequence (Q12884 whole entry): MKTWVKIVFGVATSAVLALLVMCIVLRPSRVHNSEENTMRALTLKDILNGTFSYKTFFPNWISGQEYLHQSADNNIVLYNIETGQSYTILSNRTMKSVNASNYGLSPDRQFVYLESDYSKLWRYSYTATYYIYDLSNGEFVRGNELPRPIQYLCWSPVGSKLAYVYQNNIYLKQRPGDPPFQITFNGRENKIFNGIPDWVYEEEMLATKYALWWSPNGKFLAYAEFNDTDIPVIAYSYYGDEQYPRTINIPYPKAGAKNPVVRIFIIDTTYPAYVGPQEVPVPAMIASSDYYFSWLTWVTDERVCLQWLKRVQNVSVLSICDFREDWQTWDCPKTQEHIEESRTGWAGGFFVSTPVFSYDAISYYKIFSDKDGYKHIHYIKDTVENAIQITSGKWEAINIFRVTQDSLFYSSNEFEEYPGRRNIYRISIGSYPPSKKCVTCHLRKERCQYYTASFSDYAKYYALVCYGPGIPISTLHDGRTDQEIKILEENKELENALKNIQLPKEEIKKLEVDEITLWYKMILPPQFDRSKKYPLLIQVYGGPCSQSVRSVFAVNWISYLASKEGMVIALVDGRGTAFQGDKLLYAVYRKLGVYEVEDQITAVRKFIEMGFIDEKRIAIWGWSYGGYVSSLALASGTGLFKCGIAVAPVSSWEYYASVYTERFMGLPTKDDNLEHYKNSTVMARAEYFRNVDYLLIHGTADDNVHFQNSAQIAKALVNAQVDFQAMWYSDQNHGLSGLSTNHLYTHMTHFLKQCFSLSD

Dipeptidyl peptidase 8 = Dipeptidyl peptidase 8 (Homo sapiens, UniProt Q6V1X1); experiment: Inhibition of DPP8
Dipeptidyl peptidase 8, sequence (Q6V1X1 whole entry): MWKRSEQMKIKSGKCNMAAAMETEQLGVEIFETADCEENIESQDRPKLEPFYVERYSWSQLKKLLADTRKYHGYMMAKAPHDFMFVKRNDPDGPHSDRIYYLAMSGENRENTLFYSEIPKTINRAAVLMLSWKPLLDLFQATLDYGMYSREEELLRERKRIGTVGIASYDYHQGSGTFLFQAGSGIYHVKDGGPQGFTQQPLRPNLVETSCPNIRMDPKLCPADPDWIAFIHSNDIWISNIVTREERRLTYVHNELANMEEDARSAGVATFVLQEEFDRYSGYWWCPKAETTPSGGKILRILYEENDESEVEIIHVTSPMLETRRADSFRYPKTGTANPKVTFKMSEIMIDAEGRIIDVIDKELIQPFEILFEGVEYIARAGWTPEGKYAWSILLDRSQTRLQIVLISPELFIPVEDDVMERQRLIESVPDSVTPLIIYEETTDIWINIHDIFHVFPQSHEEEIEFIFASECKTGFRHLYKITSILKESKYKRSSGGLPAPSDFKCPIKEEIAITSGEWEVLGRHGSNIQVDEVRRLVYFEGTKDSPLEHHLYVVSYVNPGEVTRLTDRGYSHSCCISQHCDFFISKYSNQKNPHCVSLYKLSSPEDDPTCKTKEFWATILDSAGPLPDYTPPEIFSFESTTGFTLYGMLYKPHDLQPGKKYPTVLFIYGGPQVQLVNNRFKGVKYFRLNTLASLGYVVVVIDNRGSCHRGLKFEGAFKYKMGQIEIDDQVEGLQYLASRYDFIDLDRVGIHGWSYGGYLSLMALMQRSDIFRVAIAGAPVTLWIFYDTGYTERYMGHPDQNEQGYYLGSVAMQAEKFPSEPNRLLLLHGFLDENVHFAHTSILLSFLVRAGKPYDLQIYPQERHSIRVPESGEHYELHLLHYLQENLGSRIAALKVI

Dipeptidyl peptidase 9 = Dipeptidyl peptidase 9 (Homo sapiens, UniProt Q86TI2); experiment: Inhibition of DPP9
Dipeptidyl peptidase 9, sequence (Q86TI2 whole entry): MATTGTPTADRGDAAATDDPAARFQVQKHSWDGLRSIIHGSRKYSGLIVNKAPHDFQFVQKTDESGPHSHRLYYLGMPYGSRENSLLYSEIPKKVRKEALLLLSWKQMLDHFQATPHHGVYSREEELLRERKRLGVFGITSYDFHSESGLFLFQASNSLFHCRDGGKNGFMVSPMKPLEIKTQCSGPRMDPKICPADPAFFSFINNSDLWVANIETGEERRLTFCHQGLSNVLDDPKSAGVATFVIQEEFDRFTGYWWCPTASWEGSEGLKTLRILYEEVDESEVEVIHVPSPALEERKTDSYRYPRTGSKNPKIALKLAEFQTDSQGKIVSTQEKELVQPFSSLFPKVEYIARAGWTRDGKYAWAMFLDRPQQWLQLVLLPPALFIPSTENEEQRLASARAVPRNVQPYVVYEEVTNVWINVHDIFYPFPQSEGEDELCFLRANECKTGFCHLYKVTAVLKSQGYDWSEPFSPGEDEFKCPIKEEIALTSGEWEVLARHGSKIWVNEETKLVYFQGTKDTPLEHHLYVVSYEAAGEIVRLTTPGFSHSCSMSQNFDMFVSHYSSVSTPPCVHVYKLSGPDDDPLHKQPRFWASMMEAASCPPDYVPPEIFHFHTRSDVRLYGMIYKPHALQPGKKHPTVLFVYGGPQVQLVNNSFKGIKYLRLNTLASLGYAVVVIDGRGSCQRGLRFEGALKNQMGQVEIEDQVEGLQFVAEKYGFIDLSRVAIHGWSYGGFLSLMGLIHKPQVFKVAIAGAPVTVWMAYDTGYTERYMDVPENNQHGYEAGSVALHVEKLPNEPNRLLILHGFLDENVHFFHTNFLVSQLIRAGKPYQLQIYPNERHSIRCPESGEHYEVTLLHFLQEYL

Dipeptidyl peptidase 4, sequence (P27487 whole entry): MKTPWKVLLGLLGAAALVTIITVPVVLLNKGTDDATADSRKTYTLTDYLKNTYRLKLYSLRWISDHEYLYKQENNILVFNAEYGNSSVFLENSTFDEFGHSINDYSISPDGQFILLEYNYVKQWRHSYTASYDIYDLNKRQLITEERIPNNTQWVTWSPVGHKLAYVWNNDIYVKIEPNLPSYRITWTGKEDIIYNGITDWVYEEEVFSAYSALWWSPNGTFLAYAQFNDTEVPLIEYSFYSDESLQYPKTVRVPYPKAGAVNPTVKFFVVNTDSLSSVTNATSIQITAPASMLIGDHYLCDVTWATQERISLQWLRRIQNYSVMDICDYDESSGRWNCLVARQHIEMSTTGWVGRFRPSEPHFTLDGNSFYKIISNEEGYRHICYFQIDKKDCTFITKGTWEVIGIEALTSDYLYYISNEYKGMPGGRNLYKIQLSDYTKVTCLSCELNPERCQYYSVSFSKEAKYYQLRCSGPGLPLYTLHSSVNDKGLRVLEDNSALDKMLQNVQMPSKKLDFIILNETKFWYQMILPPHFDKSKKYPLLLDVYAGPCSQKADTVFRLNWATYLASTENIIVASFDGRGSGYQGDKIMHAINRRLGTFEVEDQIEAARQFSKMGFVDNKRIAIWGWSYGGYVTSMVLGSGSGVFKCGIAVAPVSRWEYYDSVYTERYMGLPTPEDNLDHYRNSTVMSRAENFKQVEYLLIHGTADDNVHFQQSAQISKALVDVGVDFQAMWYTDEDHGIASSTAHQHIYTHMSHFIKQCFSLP

IC50 (Dipeptidyl peptidase 4) [µM]	IC50 (Dipeptidyl peptidase 2) [µM]	IC50 (Prolyl endopeptidase FAP) [µM]	IC50 (Dipeptidyl peptidase 8) [µM]	IC50 (Dipeptidyl peptidase 9) [µM]	Compound
0.33	18	> 35	–	–	N[C@H](Cc1cc(F)ccc1F)[C@H]1CC[C@H](N2CCn3c(nnc3C(F)(F)F)C2)CC1
–	–	> 35	–	–	N[C@H](C(=O)N1CCSC1)[C@H]1CC[C@H](NC(=O)c2ccc(OC(F)(F)F)cc2)CC1
–	–	> 35	–	–	CN([C@H]1CC[C@H]([C@H](N)Cc2cc(F)ccc2F)CC1)S(=O)(=O)c1ccccc1
–	–	> 35	–	–	CN([C@H]1CC[C@H]([C@H](N)Cc2cc(F)ccc2F)CC1)S(=O)(=O)c1ccccc1C(F)(F)F
0.085	9.6	> 35	> 69	–	CN([C@H]1CC[C@H]([C@H](N)Cc2cc(F)ccc2F)CC1)S(=O)(=O)c1cccc(C#N)c1
0.18	23	> 35	> 100	–	CN([C@H]1CC[C@H]([C@H](N)Cc2cc(F)ccc2F)CC1)S(=O)(=O)c1ccc(C#N)cc1
–	–	> 35	–	–	CN([C@H]1CC[C@H]([C@H](N)Cc2cc(F)ccc2F)CC1)S(=O)(=O)c1ccc(N)cc1
0.4	29	> 35	> 100	> 100	CN([C@H]1CC[C@H]([C@H](N)Cc2cc(F)ccc2F)CC1)S(=O)(=O)c1ccc(OC(F)(F)F)cc1
–	–	> 35	–	–	CN([C@H]1CC[C@H]([C@H](N)Cc2cc(F)ccc2F)CC1)S(=O)(=O)c1ccc(C(N)=O)cc1
–	–	> 35	–	–	CN([C@H]1CC[C@H]([C@H](N)Cc2cc(F)ccc2F)CC1)S(=O)(=O)c1ccc(F)cc1F
–	–	> 35	–	–	CN([C@H]1CC[C@H]([C@H](N)Cc2cc(F)ccc2F)CC1)S(=O)(=O)c1ccc(-c2cnco2)cc1
0.28	57	> 35	–	> 100	Cc1[nH]ncc1S(=O)(=O)N(C)[C@H]1CC[C@H]([C@H](N)Cc2cc(F)ccc2F)CC1
0.5	> 100	> 35	> 100	> 100	Cn1cnc(S(=O)(=O)N(C)[C@H]2CC[C@H]([C@H](N)Cc3cc(F)ccc3F)CC2)c1
0.17	43	> 35	> 100	> 100	Cc1oncc1S(=O)(=O)N(C)[C@H]1CC[C@H]([C@H](N)Cc2cc(F)ccc2F)CC1
–	–	> 35	–	–	CC(=O)Nc1nc(C)c(S(=O)(=O)N(C)[C@H]2CC[C@H]([C@H](N)Cc3cc(F)ccc3F)CC2)s1
0.11	35	> 35	> 100	–	CN([C@H]1CC[C@H]([C@H](N)Cc2cc(F)ccc2F)CC1)S(=O)(=O)c1cccnc1
0.038	29	> 35	> 100	–	CCN([C@H]1CC[C@H]([C@H](N)Cc2cc(F)ccc2F)CC1)S(=O)(=O)c1c(C)noc1C
0.67	10	> 35	> 100	–	Cc1noc(C)c1S(=O)(=O)N(Cc1ccccc1)[C@H]1CC[C@H]([C@H](N)Cc2cc(F)ccc2F)CC1
0.57	40	> 35	> 100	> 100	Cc1noc(C)c1S(=O)(=O)N(CCCC(F)(F)F)[C@H]1CC[C@H]([C@H](N)Cc2cc(F)ccc2F)CC1
0.26	68	> 35	> 100	–	CCN([C@H]1CC[C@H]([C@H](N)Cc2cc(F)ccc2F)CC1)S(C)(=O)=O

IC50 (Dipeptidyl peptidase 4) [µM]	IC50 (Dipeptidyl peptidase 2) [µM]	IC50 (Prolyl endopeptidase FAP) [µM]	IC50 (Dipeptidyl peptidase 8) [µM]	IC50 (Dipeptidyl peptidase 9) [µM]	Compound
1.3	11	> 35	> 100	–	CS(=O)(=O)N(Cc1ccccc1)[C@H]1CC[C@H]([C@H](N)Cc2cc(F)ccc2F)CC1
2.4	86	> 35	> 100	> 100	CS(=O)(=O)N(CCCC(F)(F)F)[C@H]1CC[C@H]([C@H](N)Cc2cc(F)ccc2F)CC1
0.99	> 100	> 35	–	–	CC(=O)N(C)[C@H]1CC[C@@H]([C@H](N)Cc2cc(F)ccc2F)CC1
0.13	> 100	> 35	> 100	–	CC(C)C(=O)N(C)[C@H]1CC[C@H]([C@H](N)Cc2cc(F)ccc2F)CC1
–	–	> 35	–	–	CN(C(=O)C(C)(C)C)[C@H]1CC[C@H]([C@H](N)Cc2cc(F)ccc2F)CC1
0.73	> 100	> 35	> 100	–	CN(C(=O)CCN)[C@H]1CC[C@H]([C@H](N)Cc2cc(F)ccc2F)CC1
0.14	58	> 35	> 100	–	CN(C(=O)c1cccnc1)[C@H]1CC[C@H]([C@H](N)Cc2cc(F)ccc2F)CC1
–	–	> 35	–	–	CN(C(=O)c1csnn1)[C@H]1CC[C@H]([C@H](N)Cc2cc(F)ccc2F)CC1
0.12	58	> 35	> 100	–	CN(C(=O)c1ccno1)[C@H]1CC[C@H]([C@H](N)Cc2cc(F)ccc2F)CC1
–	–	> 35	–	–	CN(C(=O)c1c[nH]c2ccccc12)[C@H]1CC[C@H]([C@H](N)Cc2cc(F)ccc2F)CC1
–	–	> 35	–	–	Cc1noc(C)c1C(=O)N(C)[C@H]1CC[C@H]([C@H](N)Cc2cc(F)ccc2F)CC1
0.14	21	> 35	> 100	–	Cn1ccc(C(=O)N(C)[C@H]2CC[C@H]([C@H](N)Cc3cc(F)ccc3F)CC2)n1
0.11	17	> 35	> 100	–	CC(=O)N(Cc1ccccc1)[C@H]1CC[C@H]([C@H](N)Cc2cc(F)ccc2F)CC1
–	–	> 35	–	–	N[C@H](Cc1cc(F)ccc1F)[C@H]1CC[C@@H](N2CCC(F)(F)C2)CC1
–	–	> 35	–	–	N[C@H](Cc1cc(F)ccc1F)[C@H]1CC[C@H](N2CCC(F)(F)C2)CC1
0.28	> 100	> 35	–	–	N[C@H](Cc1cc(F)ccc1F)[C@H]1CC[C@@H](N2CCn3c(nnc3C(F)(F)F)C2)CC1
–	–	> 35	–	–	N[C@H](Cc1cc(F)ccc1F)[C@H]1CC[C@@H](N2CCCCC2)CC1
–	–	> 35	–	–	N[C@H](Cc1cc(F)ccc1F)[C@H]1CC[C@H](N2CCCCC2)CC1
–	–	> 35	–	–	NC(=O)C1CCCN([C@H]2CC[C@@H]([C@H](N)Cc3cc(F)ccc3F)CC2)C1 (stereo not given in full)
–	–	> 35	–	–	NC(=O)[C@H]1CCCN([C@H]2CC[C@H]([C@H](N)Cc3cc(F)ccc3F)CC2)C1

IC50 (Dipeptidyl peptidase 4) [µM]	IC50 (Dipeptidyl peptidase 2) [µM]	IC50 (Prolyl endopeptidase FAP) [µM]	IC50 (Dipeptidyl peptidase 8) [µM]	IC50 (Dipeptidyl peptidase 9) [µM]	Compound
–	–	> 35	–	–	NC(=O)O[C@@H]1CCCN([C@H]2CC[C@H]([C@H](N)Cc3cc(F)ccc3F)CC2)C1
0.27	> 100	> 35	–	–	N[C@H](Cc1cc(F)ccc1F)[C@H]1CC[C@H](N2CCC[C@@H](O)C2)CC1
–	–	> 35	–	–	N[C@H](Cc1cc(F)ccc1F)[C@H]1CC[C@H](NCCCC(F)(F)F)CC1
0.29	12	> 35	> 100	–	CN(Cc1ccc(C#N)cc1)[C@H]1CC[C@H]([C@H](N)Cc2cc(F)ccc2F)CC1
0.22	14	> 35	> 100	–	CN(Cc1cccc(C#N)c1)[C@H]1CC[C@H]([C@H](N)Cc2cc(F)ccc2F)CC1
–	–	> 35	–	–	CCN(Cc1ccccc1)[C@H]1CC[C@H]([C@H](N)Cc2cc(F)ccc2F)CC1
–	–	> 35	–	–	N[C@H](Cc1cc(F)ccc1F)C1CCN(c2ccccn2)CC1
–	–	> 35	–	–	N[C@H](Cc1cc(F)ccc1F)C1CCN(c2cccnc2)CC1
–	–	> 35	–	–	N[C@H](Cc1cc(F)ccc1F)C1CCN(c2ccncc2)CC1
–	–	> 35	–	–	N#Cc1cncc(N2CCC([C@H](N)Cc3cc(F)ccc3F)CC2)c1
–	–	> 35	–	–	N[C@H](Cc1cc(F)ccc1F)C1CCN(c2ccc(F)nc2)CC1
–	–	> 35	–	–	CCOC(=O)c1cncc(N2CCC([C@H](N)Cc3cc(F)ccc3F)CC2)c1
–	–	> 35	–	–	N[C@H](Cc1cc(F)ccc1F)C1CCN(c2ncccn2)CC1
–	–	> 35	–	–	COc1ncc(N2CCC([C@H](N)Cc3cc(F)ccc3F)CC2)cn1
–	–	> 35	–	–	N[C@H](Cc1cc(F)ccc1F)C1CCN(c2cnc(=O)[nH]c2)CC1
–	–	> 35	–	–	COC(=O)C1CCCC(N2CCC([C@H](N)Cc3cc(F)ccc3F)CC2)C1 (stereo not given in full)
–	–	> 35	–	–	N[C@H](Cc1cc(F)ccc1F)C1CCN(C2CCCC(C(=O)O)C2)CC1 (stereo not given in full)
–	–	> 35	–	–	NC(=O)C1CCCC(N2CCC([C@H](N)Cc3cc(F)ccc3F)CC2)C1 (stereo not given in full)
0.69	23	> 35	> 100	–	N[C@H](Cc1cc(F)ccc1F)[C@H]1CC[C@H](N(CCCC(F)(F)F)Cc2ccccc2)CC1 (mixture of isomers)
–	–	> 35	–	–	NC(=O)C1CCCN([C@H]2CC[C@H]([C@H](N)Cc3cc(F)ccc3F)CC2)C1 (single isomer, unassigned)

Compound	IC50 (Dipeptidyl peptidase 4) [µM]	IC50 (Dipeptidyl peptidase 2) [µM]	IC50 (Prolyl endopeptidase FAP) [µM]	IC50 (Dipeptidyl peptidase 8) [µM]	IC50 (Dipeptidyl peptidase 9) [µM]
CS(=O)(=O)N1CCC([C@H](N)Cc2cc(F)ccc2F)CC1	–	–	> 35	–	–
